According to US7138361B2, “Herbicidal heterocycles” (E. I. du Pont de Nemours and Company, priority 2000, dated 2006):

What was measured:
Experiment in all cases: Test C postemergence
Format in all cases: in vivo
[1] = tested on: cocklebur (Xanthium strumarium)
Method in brief: (§1)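 Plants held in greenhouse for 12–14 days post-application are scored by eye against controls on a 0–100 control scale. Application timing: preemergence on sown seed, or postemergence on 2–18 cm plants.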

[2] = tested on: crabgrass (Digitaria sanguinalis)
Method in brief: as §1

[3] = tested on: chickweed (Stellaria media)
Method in brief: as §1

[4] = tested on: soybean (Glycine max)
Method in brief: as §1

[5] = tested on: kochia (Kochia scoparia)
Method in brief: as §1

[6] = tested on: woolly cupgrass (Eriochloa villosa)
Method in brief: as §1

[7] = tested on: goosegrass (Eleusine indica)
Method in brief: as §1

[8] = tested on: corn (Zea mays)
Method in brief: as §1

[9] = tested on: velvetleaf (Abutilon theophrasti)
Method in brief: as §1

[10] = tested on: bermudagrass (Cynodon dactylon)
Method in brief: as §1

[11] = tested on: pigweed (Amaranthus retroflexus)
Method in brief: as §1

[12] = tested on: giant foxtail (Setaria faberii)
Method in brief: as §1

[13] = tested on: common ragweed (Ambrosia elatior)
Method in brief: as §1

[14] = tested on: Surinam grass (Brachiaria decumbens)
Method in brief: as §1

[15] = tested on: lambsquarters (Chenopodium album)
Method in brief: as §1

[16] = tested on: yellow nutsedge (Cyperus esculentus)
Method in brief: as §1

[17] = tested on: johnsongrass (Sorghum halepense)
Method in brief: as §1

[18] = Rate 250 g/ha, scale 0 to 100 (0 no effect, 100 complete control)
[19] = Rate 125 g/ha, scale 0 to 100, 0 no effect, 100 complete control
[20] = Rate 62 g/ha, scale 0 to 100, 0 no effect, 100 complete control
[21] = Rate 500 g/ha, scale 0 to 100 (0 no effect, 100 complete control)

SMILES: CCC(C)c1ccn(C2SCN(c3cccc(C(F)(F)F)c3)C2=O)n1 (stereo not shown) [Compound 20]
- Plant response rating, Cocklebur [1, 18]: 60
- Plant response rating, Crabgrass [2, 19]: 0
- Plant response rating, Crabgrass [2, 18]: 0
- Plant response rating, Chickweed [3, 20]: 50
- Plant response rating, Chickweed [3, 19]: 50
- Plant response rating, Chickweed [3, 18]: 70
- Plant response rating, Soybean [4, 19]: 20
- Plant response rating, Soybean [4, 18]: 20
- Plant response rating, Kochia [5, 19]: 70
- Plant response rating, Kochia [5, 18]: 70
- Plant response rating, Cupgrass, Woolly [6, 19]: 0
- Plant response rating, Cupgrass, Woolly [6, 18]: 0
- Plant response rating, Goosegrass [7, 19]: 20
- Plant response rating, Goosegrass [7, 18]: 40
- Plant response rating, Corn [8, 19]: 0
- Plant response rating, Corn [8, 18]: 0
- Plant response rating, Velvetleaf [9, 19]: 30
- Plant response rating, Velvetleaf [9, 18]: 30
- Plant response rating, Bermudagrass [10, 20]: 60
- Plant response rating, Bermudagrass [10, 19]: 90
- Plant response rating, Bermudagrass [10, 18]: 90
- Plant response rating, Pigweed [11, 19]: 70
- Plant response rating, Pigweed [11, 18]: 80
- Plant response rating, Foxtail, Giant [12, 19]: 0
- Plant response rating, Foxtail, Giant [12, 18]: 70
- Plant response rating, Ragweed, Common [13, 19]: 30
- Plant response rating, Ragweed, Common [13, 18]: 30
- Plant response rating, Surinam grass [14, 20]: 0
- Plant response rating, Surinam grass [14, 19]: 0
- Plant response rating, Surinam grass [14, 18]: 0
- Plant response rating, Lambsquarters [15, 19]: 70
- Plant response rating, Lambsquarters [15, 18]: 80
- Plant response rating, Nutsedge [16, 19]: 0
- Plant response rating, Nutsedge [16, 18]: 0
- Plant response rating, Johnsongrass [17, 19]: 0
- Plant response rating, Johnsongrass [17, 18]: 80

SMILES: CCC(CC)c1ccn(C2SCN(c3cccc(C(F)(F)F)c3)C2=O)n1 (stereo not shown) [Compound 21]
- Plant response rating, Cocklebur ([1]; Rate 31 g/ha, scale 0 to 100): 20
- Plant response rating, Cocklebur [1, 19]: 30
- Plant response rating, Crabgrass ([2]; Rate 31 g/ha, scale 0 to 100): 0
- Plant response rating, Crabgrass [2, 19]: 0
- Plant response rating, Chickweed ([3]; Rate 31 g/ha, scale 0 to 100): 30
- Plant response rating, Chickweed [3, 20]: 50
- Plant response rating, Chickweed [3, 19]: 50
- Plant response rating, Soybean ([4]; Rate 31 g/ha, scale 0 to 100): 0
- Plant response rating, Soybean [4, 19]: 30
- Plant response rating, Kochia ([5]; Rate 31 g/ha, scale 0 to 100): 30
- Plant response rating, Kochia [5, 19]: 40
- Plant response rating, Cupgrass, Woolly ([6]; Rate 31 g/ha, scale 0 to 100): 0
- Plant response rating, Cupgrass, Woolly [6, 19]: 0
- Plant response rating, Goosegrass ([7]; Rate 31 g/ha, scale 0 to 100): 0
- Plant response rating, Goosegrass [7, 19]: 0
- Plant response rating, Corn ([8]; Rate 31 g/ha, scale 0 to 100): 0
- Plant response rating, Corn [8, 19]: 0
- Plant response rating, Velvetleaf ([9]; Rate 31 g/ha, scale 0 to 100): 20
- Plant response rating, Velvetleaf [9, 19]: 30
- Plant response rating, Bermudagrass ([10]; Rate 31 g/ha, scale 0 to 100): 50
- Plant response rating, Bermudagrass [10, 20]: 50
- Plant response rating, Bermudagrass [10, 19]: 50
- Plant response rating, Pigweed ([11]; Rate 31 g/ha, scale 0 to 100): 50
- Plant response rating, Pigweed [11, 19]: 70
- Plant response rating, Foxtail, Giant ([12]; Rate 31 g/ha, scale 0 to 100): 0
- Plant response rating, Foxtail, Giant [12, 19]: 0
- Plant response rating, Ragweed, Common ([13]; Rate 31 g/ha, scale 0 to 100): 0
- Plant response rating, Ragweed, Common [13, 19]: 50
- Plant response rating, Surinam grass ([14]; Rate 31 g/ha, scale 0 to 100): 0
- Plant response rating, Surinam grass [14, 20]: 0
- Plant response rating, Surinam grass [14, 19]: 0
- Plant response rating, Lambsquarters ([15]; Rate 31 g/ha, scale 0 to 100): 70
- Plant response rating, Lambsquarters [15, 19]: 80
- Plant response rating, Nutsedge ([16]; Rate 31 g/ha, scale 0 to 100): 0
- Plant response rating, Nutsedge [16, 19]: 0
- Plant response rating, Johnsongrass ([17]; Rate 31 g/ha, scale 0 to 100): 0
- Plant response rating, Johnsongrass [17, 19]: 50

SMILES: CCC(CC)c1ccn(C2SCN(c3cccc(C(F)(F)F)c3)C2=O)n1 (stereo not shown) [Compound 25]
- Plant response rating, Cocklebur [1, 19]: 60
- Plant response rating, Cocklebur [1, 18]: 60
- Plant response rating, Cocklebur [1, 21]: 60
- Plant response rating, Crabgrass [2, 19]: 30
- Plant response rating, Crabgrass [2, 18]: 70
- Plant response rating, Crabgrass [2, 21]: 90
- Plant response rating, Chickweed [3, 20]: 60
- Plant response rating, Chickweed [3, 19]: 70
- Plant response rating, Chickweed [3, 18]: 80
- Plant response rating, Chickweed [3, 21]: 90
- Plant response rating, Soybean [4, 19]: 20
- Plant response rating, Soybean [4, 18]: 30
- Plant response rating, Soybean [4, 21]: 30
- Plant response rating, Kochia [5, 19]: 70
- Plant response rating, Kochia [5, 18]: 70
- Plant response rating, Kochia [5, 21]: 70
- Plant response rating, Cupgrass, Woolly [6, 19]: 40
- Plant response rating, Cupgrass, Woolly [6, 18]: 60
- Plant response rating, Cupgrass, Woolly [6, 21]: 70
- Plant response rating, Goosegrass [7, 19]: 20
- Plant response rating, Goosegrass [7, 18]: 60
- Plant response rating, Goosegrass [7, 21]: 60
- Plant response rating, Corn [8, 19]: 0
- Plant response rating, Corn [8, 18]: 20
- Plant response rating, Corn [8, 21]: 30
- Plant response rating, Velvetleaf [9, 19]: 40
- Plant response rating, Velvetleaf [9, 18]: 50
- Plant response rating, Velvetleaf [9, 21]: 50
- Plant response rating, Bermudagrass [10, 20]: 60
- Plant response rating, Bermudagrass [10, 19]: 70
- Plant response rating, Bermudagrass [10, 18]: 90
- Plant response rating, Bermudagrass [10, 21]: 90
- Plant response rating, Pigweed [11, 19]: 90
- Plant response rating, Pigweed [11, 18]: 100
- Plant response rating, Pigweed [11, 21]: 100
- Plant response rating, Foxtail, Giant [12, 19]: 30
- Plant response rating, Foxtail, Giant [12, 18]: 80
- Plant response rating, Foxtail, Giant [12, 21]: 90
- Plant response rating, Ragweed, Common [13, 19]: 0
- Plant response rating, Ragweed, Common [13, 18]: 30
- Plant response rating, Ragweed, Common [13, 21]: 40
- Plant response rating, Surinam grass [14, 20]: 0
- Plant response rating, Surinam grass [14, 19]: 0
- Plant response rating, Surinam grass [14, 18]: 0
- Plant response rating, Surinam grass [14, 21]: 0
- Plant response rating, Lambsquarters [15, 19]: 90
- Plant response rating, Lambsquarters [15, 18]: 100
- Plant response rating, Lambsquarters [15, 21]: 100
- Plant response rating, Nutsedge [16, 19]: 0
- Plant response rating, Nutsedge [16, 18]: 0
- Plant response rating, Nutsedge [16, 21]: 0
- Plant response rating, Johnsongrass [17, 19]: 20
- Plant response rating, Johnsongrass [17, 18]: 50
- Plant response rating, Johnsongrass [17, 21]: 90
